Measurements as given in article PMC3914891, “Pentacyclic Nitrofurans with In Vivo Efficacy and Activity against Nonreplicating Mycobacterium tuberculosis” (PLoS ONE, 2014).
≈ marks a conversion by molar mass, not a printed value. Like-named read-outs stand apart in the source and are kept apart here. Marks after values point to notes of the source that are not given here.

How the values were obtained:
[1] = test system: M. tuberculosis strain H37Rv; experiment: Checkerboard synergy assay; type: cell-based, Mycobacterium tuberculosis; details: for MIC: Mycobacterium tuberculosis, 168 h, read-out: MIC Alone
[2] = test system: hypoxic M. tuberculosis strain H37Rv; experiment: NRP bacteria under hypoxia (rapid anaerobic dormancy model); type: cell-based, Mycobacterium tuberculosis
[3] = test system: M. tuberculosis strain H37Rv (mid-log and nutrient-starved); experiment: Nutrient starvation model of nonreplicating persisters; type: cell-based, Mycobacterium tuberculosis
[4] = test system: M. bovis strain BCG Pasteur; type: cell-based
M. tuberculosis Erdman = details: mouse, in vivo, po, 25 mg/kg
M. tuberculosis = experiment: MIC determination, microbroth dilution, M. tuberculosis; type: cell-based, Mycobacterium tuberculosis
Vero cells [5] = details: cited from earlier work
Vero cells [6] = experiment: In vitro cytotoxicity against Vero cells
[7] = mouse plasma; ref footnote g, values reported in reference (number not given); cited from earlier work
[8] = test system: Staphylococcus aureus (NRS70); experiment: MIC, spectrum of activity: MRSA; type: cell-based; details: read-out: Minimum Inhibitory Concentration, MRSA
M. fortuitum (ATCC 6841) = experiment: MIC, non-tuberculosis mycobacteria: M. fortuitum; type: cell-based; details: Mycolicibacterium fortuitum, ATCC6841, 72 h; broth dilution, visual inspection, 3 days; read-out: Minimum Inhibitory Concentration, M. fortuitum
M. kansasii (ATCC 12478) = experiment: MIC, non-tuberculosis mycobacteria: M. kansasii; type: cell-based; details: Mycobacterium kansasii, ATCC12478, 168 h; broth dilution, visual inspection, 7 days; read-out: Minimum Inhibitory Concentration, M. kansasii
M. avium (ATCC 25291) = experiment: MIC, non-tuberculosis mycobacteria: M. avium; type: cell-based; details: Mycobacterium avium, ATCC25291, 168 h; broth dilution, visual inspection, 7 days; read-out: Minimum Inhibitory Concentration, M. avium
[9] = test system: M. abscessus (ATCC 19977); experiment: MIC, non-tuberculosis mycobacteria: M. abscessus; type: cell-based; details: Mycobacteroides abscessus, ATCC19977, 72 h, read-out: Minimum Inhibitory Concentration, M. abscessus
H37Rv-wt = experiment: microbe, parasite or virus in culture; type: cell-based, M. tuberculosis; details: Mycobacterium tuberculosis
[10] = test system: Bacillus anthracis sterne 34F2; experiment: microbe, parasite or virus in culture; type: cell-based; details: STERNE34F2, read-out: Minimum Inhibitory Concentration, B.a.
[11] = test system: Bacillus subtilis (ATCC 23857); experiment: MIC, spectrum of activity: B.s.; type: cell-based; details: ATCC23857, read-out: Minimum Inhibitory Concentration, B.s.
physchem = details: pH 7.4, aqueous buffer
[12] = test system: Streptococcus pneumoniae (R6); experiment: MIC, spectrum of activity: S.pn; type: cell-based; details: read-out: Minimum Inhibitory Concentration, S. Pn.
[13] = In vitro cytotoxicity against Vero cells; details: African green monkey, Vero cells (kidney epithelial cells, ATCC CCL-81)
M. tuberculosis H37Rv = experiment: Minimum bactericidal concentration determination; type: cell-based, Mycobacterium tuberculosis
[14] = test system: Staphylococcus aureus (ATCC 29213); experiment: MIC, spectrum of activity: S.a.; type: cell-based; details: ATCC29213, read-out: Minimum Inhibitory Concentration, S.a
[15] = test system: Stenotrophomonas maltophilia (ATCC 13637); experiment: MIC, spectrum of activity: S.m.; type: cell-based; details: ATCC13637, read-out: Minimum Inhibitory Concentration, S.m.
in vitro [16] = details: mouse, plasma
[17] = test system: Enterococcus faecalis (ATCC 33186); experiment: MIC, spectrum of activity: E.f.; type: cell-based; details: ATCC33186, read-out: Minimum Inhibitory Concentration, E.f.
[18] = test system: Streptococcus pyogenes (ATCC 700294); experiment: MIC, spectrum of activity: S.py; type: cell-based; details: ATCC700294, read-out: Minimum Inhibitory Concentration, S. Py.
[19] = test system: Burkholderia cepacia (ATCC 25416); experiment: MIC, spectrum of activity: B.c.; type: cell-based; details: ATCC25416, read-out: Minimum Inhibitory Concentration, B.c.
in vitro [20] = details: mouse, microsomes
M. ulcerans (ATCC 35840) = experiment: MIC by agar proportion method: M. ulcerans; type: cell-based; details: Mycobacterium ulcerans, ATCC35840, 672 h; agar proportion method, 4 weeks; read-out: Minimum Inhibitory Concentration, M. ulcerans
[21] = test system: Escherichia coli (ATCC 700926); experiment: MIC, spectrum of activity: E.c.; type: cell-based; details: ATCC700926, read-out: Minimum Inhibitory Concentration, E.c.
E. coli K12 ∆tolC = type: cell-based; details: E. coli K12 ∆tolC (efflux pump deficient)

What does the source list for NNC(=O)c1ccncc1 [Isoniazid]?
FICI with 9a [1]: 0.52–2.00; MIC in presence of 9a [1]: 0.01 to 0.02 µg/mL; Type of Interaction [1]: Indifference (key: Synergy: synergy (FICI ≤0.5); Indifference: indifference (FICI >0.5–4.0); Antagonism: antagonism (FICI >4.0)); MIC ([1]; H37RV): 0.02 µg/mL; % Growth vs. Control [2]: 29.1–49.1%; fold less active against nutrient starved bacteria than against actively growing culture [3]: 7 fold; reduction in viability (killing) of actively growing culture [3]: > 95%; PAE [4]: 71.8 h; Log10CFU (SEM), lungs (M. tuberculosis Erdman): 4.60 (0.21) Log10CFU; Log10CFU (SEM), spleen (M. tuberculosis Erdman): 2.61 (0.09) Log10CFU

Which results are given for O=[N+]([O-])c1ccc(C2=NOC(c3ccc(N4CCOCC4)cc3)C2)o1 (centres unmarked) [Compound 2]?
MIC (M. tuberculosis; Mycobacterium tuberculosis, 168 h, read-out: M. tb. MIC): 0.006 µg/mL; Cytotoxicity IC50 (Vero cells [5]): 2.9 ^g µg/mL; Solubility (pH 7.4): 9.9 µg/mL; Selective Index (Cytox/MIC) (Vero cells [6]): 483; Plasma Protein binding [7]: 96.4 ^g %

For O=[N+]([O-])c1cn2c(n1)OC[C@@H](OCc1ccc(OC(F)(F)F)cc1)C2 [PA-824], which MIC [8] is on record?
Its MIC is > 200 µg/mL.

And the MIC (M. fortuitum (ATCC 6841))?
The MIC was > 200 µg/mL.

And the MIC (M. kansasii (ATCC 12478))?
Its MIC is 3.1 to 12.5 µg/mL (≈ 8.63 to 34.8 µM).

And the MIC (M. tuberculosis; Mycobacterium tuberculosis, 168 h; read-out: M. tb. MIC)?
Its MIC is 0.39 µg/mL.

And the MIC (M. tuberculosis; Mycobacterium tuberculosis; M. tuberculosis; […]; read-out: MIC)?
The MIC was > 1 µM.

What about the MIC (M. avium (ATCC 25291)) of the same compound?
Its MIC is > 200 µg/mL.

What about the MIC [9] of the same compound?
The MIC was > 200 µg/mL.

What about the MIC (H37Rv-wt) of the same compound?
Its MIC is 0.1 µg/mL (≈ 0.278 µM).

And the MIC [10]?
Its MIC is > 200 µg/mL.

And the MIC [11]?
The MIC was 200 µg/mL (≈ 557 µM).

And the solubility (physchem)?
The solubility was 8.5 µg/mL (≈ 23.7 µM).

What about the “MIC in presence of 9a” value [1] of the same compound?
The value was 0.01 to 0.02 µg/mL.

And the MIC ([1]; checkerboard, H37Rv, 7 days)?
The MIC was 0.2 to 0.8 µg/mL.

What about the “fold decrease of MIC in the presence of 9a” value ([1]; checkerboard, H37Rv) of the same compound?
Its value is ~10 fold.

And the “Type of Interaction” value ([1]; interaction of the treatment with 9a)?
Its value is “Synergy (synergy (FICI ≤0.5))”.

And the “% Growth vs. Control” value [2]?
Its value is <0.1%.

And the “killing of hypoxic bacilli” value ([2]; 10 µg/mL, NRP-2 bacilli)?
Its value is > 99.9%.

And the MIC [12]?
The MIC was > 200 µg/mL.

What about the “Selective Index (Cytox/MIC)” value (Vero cells [6]) of the same compound?
The value was 178.

And the IC50 [13]?
Its IC50 is 69.4 µg/mL (≈ 193 µM).

What about the MBC (M. tuberculosis H37Rv) of the same compound?
Its MBC is >6.

What about the Classification (M. tuberculosis H37Rv; cidal or static from MBC versus MIC) of the same compound?
The Classification was “Static (static (MBC/MIC >4))”.

What about the MIC [14] of the same compound?
The MIC was > 200 µg/mL.

And the MIC [15]?
The MIC was > 200 µg/mL.

What about the fraction unbound (in vitro [16]) of the same compound?
Its fraction unbound is 0.071.

What about the MIC [17] of the same compound?
Its MIC is > 200 µg/mL.

And the MIC [18]?
Its MIC is > 200 µg/mL.

What about the MIC [19] of the same compound?
The MIC was > 200 µg/mL.

What about the half-life (in vitro [20]) of the same compound?
Its half-life is 8.12 h.

What about the MIC (M. ulcerans (ATCC 35840)) of the same compound?
Its MIC is 3.1 to 25 µg/mL (≈ 8.63 to 69.6 µM).

What about the MIC [21] of the same compound?
Its MIC is > 200 µg/mL.

What about the “Minimum Inhibitory Concentration, E.c. ΔtolC” value (E. coli K12 ∆tolC) of the same compound?
Its value is >200 µg/mL.
